According to the CheMixHub viscosity set:
Several values for one entry are separate records, joined by “and”; a condition that tells them apart may be missing. Equal entries are not always repeated. ± gives the uncertainty stated by the source.

Test: xn = mol fraction of the nth substance listed

OCCN(CCO)CCO + O
viscosity
Conditions	293.15 K	298.15 K	303.15 K	308.15 K	313.15 K	323.15 K
101 kPa, x1 = 0.029	2 ± 0.017 mPa·s	–	–	–	–	0.988 ± 0.009 mPa·s
101 kPa, x1 = 0.0434	–	2.499 ± 0.017 mPa·s	2.194 ± 0.014 mPa·s	–	1.661 ± 0.011 mPa·s	–
101 kPa, x1 = 0.0649	–	3.802 ± 0.025 mPa·s	3.446 ± 0.022 mPa·s	–	2.406 ± 0.016 mPa·s	–
101 kPa, x1 = 0.0966	–	6.839 ± 0.043 mPa·s	5.658 ± 0.035 mPa·s	–	4.005 ± 0.025 mPa·s	–
101 kPa, x1 = 0.11	8.51 ± 0.18 mPa·s	–	–	–	–	3.24 ± 0.036 mPa·s
101 kPa, x1 = 0.1312	–	11.65 ± 0.07 mPa·s	9.419 ± 0.054 mPa·s	–	6.419 ± 0.038 mPa·s	–
101 kPa, x1 = 0.1769	–	20.76 ± 0.13 mPa·s	16.89 ± 0.09 mPa·s	–	10.97 ± 0.06 mPa·s	–
101 kPa, x1 = 0.27	64.6 ± 1.9 mPa·s	–	–	–	–	14.8 ± 0.23 mPa·s
101 kPa, x1 = 0.2724	–	54.52 ± 0.26 mPa·s	41.37 ± 0.22 mPa·s	–	25.21 ± 0.13 mPa·s	–
101 kPa, x1 = 0.3481	–	96.45 ± 1.1 mPa·s	73.09 ± 0.53 mPa·s	–	41.11 ± 0.21 mPa·s	–
101 kPa, x1 = 0.4784	–	187.3 ± 4.3 mPa·s	131.4 ± 2.2 mPa·s	–	70.8 ± 0.47 mPa·s	–
101 kPa, x1 = 0.5814	–	278.1 ± 8.1 mPa·s	187.2 ± 4.3 mPa·s	–	97.64 ± 1.2 mPa·s	–
101 kPa, x1 = 0.7166	–	390.4 ± 14 mPa·s	269.9 ± 7.8 mPa·s	–	138.2 ± 2.4 mPa·s	–
101 kPa, x1 = 0.8347	–	472.7 ± 18 mPa·s	328.9 ± 10 mPa·s	–	166.2 ± 3.4 mPa·s	–
101 kPa, x1 = 0.9177	–	542.7 ± 22 mPa·s	369.7 ± 13 mPa·s	–	184.6 ± 4.1 mPa·s	–
101 kPa, x1 = 0.9724	–	585.3 ± 24 mPa·s	396.2 ± 14 mPa·s	–	196.3 ± 4.6 mPa·s	–
101.3 kPa, x1 = 0.0064	1.141 ± 0.022 mPa·s	0.998 ± 0.019 mPa·s	0.872 ± 0.019 mPa·s	0.765 ± 0.018 mPa·s	0.664 ± 0.014 mPa·s	0.555 ± 0.013 mPa·s
101.3 kPa, x1 = 0.0134	1.33 ± 0.034 mPa·s	1.161 ± 0.029 mPa·s	1.039 ± 0.025 mPa·s	0.914 ± 0.022 mPa·s	0.801 ± 0.02 mPa·s	0.688 ± 0.016 mPa·s
101.3 kPa, x1 = 0.0294	–	1.789 ± 0.034 mPa·s	1.559 ± 0.028 mPa·s and 1.57 ± 0.028 mPa·s	1.369 ± 0.025 mPa·s	–	0.988 ± 0.017 mPa·s

COCCOCCO + O=C1CCCN1
298.15 K, 101 kPa
Conditions	viscosity [mPa·s]
x1 = 0.0019	14.15 ± 0.3
x1 = 0.0054	14.04 ± 0.3
x1 = 0.0129	13.78 ± 0.29
x1 = 0.0209	13.49 ± 0.28
x1 = 0.0311	13.16 ± 0.28
x1 = 0.0482	12.66 ± 0.27
x1 = 0.0682	12.11 ± 0.26
x1 = 0.0864	11.61 ± 0.24
x1 = 0.1139	10.99 ± 0.23
x1 = 0.1615	9.962 ± 0.21
x1 = 0.2074	9.178 ± 0.2
x1 = 0.2531	8.449 ± 0.18
x1 = 0.2817	8.045 ± 0.17
x1 = 0.3289	7.543 ± 0.16
x1 = 0.3814	7.009 ± 0.15
x1 = 0.4684	6.246 ± 0.14
x1 = 0.489	6.106 ± 0.13
x1 = 0.5396	5.741 ± 0.13
x1 = 0.6097	5.295 ± 0.12
x1 = 0.6687	4.976 ± 0.11
x1 = 0.7169	4.749 ± 0.11
x1 = 0.7652	4.502 ± 0.1
x1 = 0.8144	4.294 ± 0.097
x1 = 0.8697	4.069 ± 0.092
x1 = 0.8962	3.972 ± 0.09
x1 = 0.9239	3.85 ± 0.09
x1 = 0.9469	3.745 ± 0.085
x1 = 0.9719	3.658 ± 0.084
x2 = 0.0058	3.533 ± 0.081
x2 = 0.0141	3.561 ± 0.082

COC=O + O=C1CCCO1
298.15 K, 101.33 kPa
Conditions	viscosity [mPa·s]
x1 = 0.0499	1.589 ± 0.012
x1 = 0.1025	1.457 ± 0.011
x1 = 0.153	1.367 ± 0.011
x1 = 0.2017	1.262 ± 0.01
x1 = 0.2492	1.175 ± 0.009
x1 = 0.303	1.08 ± 0.009
x1 = 0.4004	0.913 ± 0.007
x1 = 0.4594	0.821 ± 0.007
x1 = 0.5053	0.747 ± 0.006
x1 = 0.5599	0.678 ± 0.006
x1 = 0.6177	0.611 ± 0.005
x1 = 0.7071	0.515 ± 0.005
x1 = 0.7556	0.456 ± 0.004
x1 = 0.8	0.426 ± 0.004
x1 = 0.8515	0.38 ± 0.004
x1 = 0.9005	0.344 ± 0.003
x1 = 0.9511	0.331 ± 0.003

Cc1ccccc1C + O=C1CCCO1
viscosity [mPa·s], 101.33 kPa
Conditions	x2 = 0.1199	x2 = 0.1801	x2 = 0.2998	x2 = 0.4005	x2 = 0.5044	x2 = 0.5994	x2 = 0.7011	x2 = 0.7885	x2 = 0.9087
293.15 K	0.907 ± 0.009	0.955 ± 0.009	1.054 ± 0.01	1.145 ± 0.011	1.248 ± 0.012	1.351 ± 0.012	1.472 ± 0.014	1.584 ± 0.014	1.75 ± 0.016
298.15 K	0.854 ± 0.008	0.901 ± 0.009	0.996 ± 0.009	1.081 ± 0.01	1.175 ± 0.011	1.269 ± 0.012	1.379 ± 0.013	1.48 ± 0.014	1.629 ± 0.015
303.15 K	0.795 ± 0.008	0.839 ± 0.008	0.927 ± 0.009	1.006 ± 0.01	1.093 ± 0.01	1.178 ± 0.011	1.276 ± 0.012	1.367 ± 0.013	1.502 ± 0.014
308.15 K	0.747 ± 0.007	0.787 ± 0.008	0.867 ± 0.008	0.937 ± 0.009	1.014 ± 0.01	1.09 ± 0.01	1.179 ± 0.011	1.263 ± 0.012	1.39 ± 0.013

Cc1ccc(N)cc1 + O=[N+]([O-])c1ccccc1O
323.1 K, 101 kPa
Conditions	viscosity [mPa·s]
x2 = 0.296	1.835 ± 0.037
x2 = 0.75	2.15 ± 0.043

CCCCCCCCCCCC[P+](CC)(CC)CC.N#Cc1ccc[n-]1 + OCC(O)CO
100 kPa
Conditions	viscosity [mPa·s]
293.15 K, x1 = 0.542	941 ± 140
293.15 K, x1 = 0.677	861 ± 130
298.15 K, x1 = 0.003	864 ± 130
298.15 K, x1 = 0.01	905 ± 140
298.15 K, x1 = 0.343	974 ± 150
298.15 K, x1 = 0.426	715 ± 110
303.15 K, x1 = 0.041	788 ± 120
303.15 K, x1 = 0.056	912 ± 140
303.15 K, x1 = 0.196	957 ± 140
303.15 K, x1 = 0.292	734 ± 110

CCCCCCCCCCCC[P+](CC)(CC)CC.N#Cc1ccc[n-]1 + OCCN(CCO)CCO
viscosity [mPa·s], 100 kPa
Conditions	x1 = 0.035	x1 = 0.091	x1 = 0.207	x1 = 0.28	x1 = 0.473	x1 = 0.687	x1 = 0.809
293.15 K	991 ± 150	–	876 ± 130	863 ± 130	853 ± 130	836 ± 120	718 ± 110
298.15 K	–	675 ± 100	–	–	–	–	–

CCn1cc[n+](C)c1.F[B-](F)(F)F + OCCO
Conditions	viscosity [mPa·s]
313.15 K, 101 kPa, x1 = 0.7003	10.55 ± 1.1
323.15 K, 100 kPa, x1 = 0.717	9.915 ± 1
323.15 K, 101 kPa, x1 = 0.7997	9.913 ± 0.99

Cc1ccc(N)cc1 + Oc1ccccc1
101 kPa
Conditions	viscosity [mPa·s]
303.1 K, x2 = 0.43	7.57 ± 0.16
303.1 K, x2 = 0.507	8.64 ± 0.18
303.1 K, x2 = 0.619	9.42 ± 0.19
303.1 K, x2 = 0.652	9.62 ± 0.19
303.1 K, x2 = 0.741	8.94 ± 0.18
313.05 K, x2 = 0.111	2.632 ± 0.025
313.05 K, x2 = 0.2288	3.352 ± 0.033
313.05 K, x2 = 0.3265	4.09 ± 0.04
313.05 K, x2 = 0.4169	4.82 ± 0.05
313.05 K, x2 = 0.4949	5.43 ± 0.05
313.05 K, x2 = 0.5828	6.015 ± 0.058
313.05 K, x2 = 0.6568	6.29 ± 0.06
313.05 K, x2 = 0.737	6.27 ± 0.06
313.05 K, x2 = 0.8217	5.915 ± 0.057
313.05 K, x2 = 0.9089	5.38 ± 0.05
